Experimental findings from patent US20170269060A1, “Assays and Compounds to Treat Kidney Diseases” (Rush University Medical Center, priority 2014, published 2017) are described below.

Assay [1] deals with murine podocytes. In words: Primary HCS screen of chemical library, cell roundness Z score, PAN injury. The class given is cell-based. To be noted: PAN 16 μg/ml, 48 hours; Z-score cutoff ≦−1.28. How it is done:
Screening of chemical libraries, which include the MicroSource Spectrum collection (MicroSource Discovery Systems, Inc., Gaylorsville, C T, 2000 compounds) and Enzo kinase inhibitor array (Enzo Life Sciences, Farmingdale, N.Y., 80 compounds), Sigma, Millipore, Tocris and Cayman (41 compounds), was performed using multiwall plates. Podocytes cultured in multiwall plates were used in these assays. 100 nL of each compound, also in multiwall plates (at a stock concentration of 1 mM to 10 mM in DMSO), was added to each well of a podocyte containing multiwall plate using the Perkin Elmer Janus automated workstation with the help of a 96-pin or 384-pin pin tool (100 nL, PerkinElmer). The compounds were added in the absence or presence of podocyte damaging agent (such as PAN). The plates containing the compounds were subsequently placed in tissue culture incubators and cells were further cultured for 1-72 h at 37° C. A compound that decreased PAN damaged was identified by quantifying the changes in at least one of the following parameters: cell morphology, cell roundedness, F-actin intensity, number of focal adhesions, intensity or size of focal adhesions, length of actin fibers, size of actin fibers, percent damaged or percent healthy cells etc. In certain cases, hits were validated by acquiring a fresh batch of the compound from commercial sources and performing dose-response curves. Images from the primary screen were quantified for cell morphology parameter and were normalized by calculating z-score (z) for each test compound, to compensate for any plate-to-plate variability. (Wiggins, Kidney International, 2007) z was calculated for each of the test compounds using the formula: […]
where x is the raw measured value with each compound, μ is the mean of all measured raw values across a plate and a is the standard deviation of the measurements. A z-score of […], corresponding to 90% population under the curve, was used as a cutoff to identify primary hits in the assay.
To identify small molecules that protect podocytes from PAN injury, a chemical library of 2121 pharmacologically active compounds was screened. Podocytes were treated with compounds from the chemical library in the presence of PAN (16 μg/ml) at 37° C. for 48 hours. The assay plates also contained eight positive (PAN and MZR treatment) and eight negative (PAN treatment) control wells. Wells were imaged and analyzed, and the mean cell roundness per cell was calculated for each well. Mean cell roundness was normalized using plate-based positive and negative controls, and a Z score for the change in cell morphology on treatment with each compound (SD away from the plate mean) was calculated. The results from the screen are presented as a graph in FIG. 7A. Wells with nuclei counts. […] Primary hits (compounds that protected podocytes from PAN damage) were identified from the assay using a Z-score cutoff of ≦−1.28 corresponding to the 10% population on one side of the bell-shaped curve. […] Given that our assay is image based, the images from all initial hits were visually inspected manually, which eliminated 10 compounds as nonhits. […] The identified list of primary hit compounds included three Rho kinase inhibitors (Y27632, GSK 429286, and Thiazovivin) and a p38 kinase inhibitor (SB 203580). […] Next, to validate the hit compounds identified from our screen, selected primary hits were reanalyzed using independently obtained powder forms of the compounds.

In assay [2] the test system is murine podocytes. As to the kind of experiment: Podocyte HCS phenotypic assay, PAN-induced podocyte injury. In kind it is cell-based. How it is done: Conditionally immortalized human and murine podocytes were used in a majority of the assays. Human and murine podocytes were cultured as have been described previously (Saleem et al., JASN 13, 630-638 (2002); Mundel, Reiser et al., Experimental Cell Research, 236, p 248 (1997)). For example, murine podocytes derived from the mouse line H-2Kb-tsA58 were cultured under permissive conditions at 33° C. on rat-tail collagen coated dishes in RPMI medium supplemented with 10% heat inactivated FBS, penicillin and streptomycin (100 U/ml), and 10 U/ml recombinant mouse γ-interferon. Cells were then trypsinized and re-plated for differentiation at 37° C. in medium without γ-interferon. The cells were differentiated for 0 to 7 days and then reseeded to rat-tail collagen coated multi-well plates at a density of 1500/well or 500/well for 96 and 384 well plates, respectively. Cells were then further differentiated for another 5-14 days in the multi-well plates for subsequent experimentation with various reagents prior to fixation and analyses.
In some embodiments, podocytes were cultured at 37° C. for the first 7 days of differentiation in large tissue culture flasks and subsequently reseeded and further cultured at 37° C. in the 96-well assay plates for the next 4-6 days to provide low well-to-well variability in cell number in the assay plates and healthy podocytes expressing specific and well characterized podocyte markers synaptopodin and podocin.
Differentiated podocytes were cultured in 96-well or 384-well multiwall optical plates (PerkinElmer, Boston, Mass.). In some embodiments, differentiated podocytes were treated with various amounts of puromycin aminonucleoside (PAN), […] LPS, Adriamycin and other agents. In some embodiments, the cells were co-treated with chemical and other agents (such as mizouribine) to prevent damage from damaging agents (such as PAN). In other embodiments, the rescue agents were added 0-48 h after the addition of injury causing agents. In some embodiments, patient samples such as blood, serum, urine or other samples were added to differentiated podocytes to identify disease causing agents. In some embodiments, primary, differentiated patient podocytes were cultured to identify defects in structure and/or function.
After culturing for the appropriate time and treatment or control, cultured podocytes in multi-well optical plates were rinsed with phosphate buffered saline (PBS) and subsequently fixed using a solution of paraformaldehyde and sucrose in PBS (at a final concentration of 4% paraformaldehyde and 2% sucrose in PBS) for 30 min at room temperature. Following fixation, the cells were permeabilization using a solution of 0.3% Triton X-100 in PBS for 15 min at room temperature. For visualization of filamentous-actin (F-Actin) in cells, cells were stained with a solution of Alexa fluor 568 phalloidin (Invitrogen), as previously described. HCS CellMask Blue (Invitrogen) was used as a fluorescent stain for visualizing nuclei, cytoplasm and the individual cell boundaries. Additional proteins that were fluorescently labeled and analyzed using appropriate primary mAbs include synaptopodin (synpo, primary mAb from Santa Cruz), Paxillin (primary mAb clone Y113 from Millipore) for quantitation of focal adhesions, beta1 integrin, podocin, WT1 nephrin, CD2-AP may also be used. Other proteins may also be used for labeling. Appropriate secondary antibodies (fluorescently labeled) were used for fluorescent visualizations. High throughput confocal microscopy was done using the Opera LX (Perkin Elmer) with filters and exposure times according to manufacturer's instructions and as described before. Images were used in subsequent image analysis for quantitation of a variety of cellular parameters. Assays were performed in replicate wells for assay robustness.
Images for each frame of each well in multiple fluorescent channels were acquired using OPERA imaging system. […]

For the compound `O=S(=O)(NCC1CC1)c1ccc(Nc2nccc(N3CCCc4cc(O)ccc43)n2)cc1` [Pyrintegrin], the “primary hit (protects podocytes from PAN damage)” value in the assay with murine podocytes [1] was “top primary hit”. Besides, in the assay on murine podocytes [2] (30 ug/ml PAN, co-treatment, multi-parameter algorithm), the “prevention of PAN induced injury, dose-response of percent damaged cells (FIG. 4A-4P)” value was “prevented PAN induced injury”. The EC50 in the assay on murine podocytes [2] (PAN 16 μg/ml, 48 hours, F-actin fibers per cell (FIG. 8), read-out: apparent half-maximal effective concentration (EC50), protection from PAN-induced damage) was 0.8 µM. In the assay on murine podocytes [2] (PAN 16-30 μg/ml, 48 hours, F-actin fibers and other parameters), the “dose-dependent protection of podocytes from PAN-induced injury” value was “dose dependently protected”. Further, the “loss of actin stress fibers and focal adhesion complexes on PAN-induced injury” value in the assay on murine podocytes [2] (PAN cotreatment (FIG. 9B)) was “protected podocytes from the loss of actin stress fibers and focal adhesion complexes”. Besides, the “actin stress fibers in healthy cells” value in the assay on murine podocytes [2] (healthy cells, no PAN) is on record as “small but significant increase in actin stress fibers”.
